What all share (type): subcellular
Test [1] relates to Liposome. Description: The compound was evaluated for percent incorporation in DOPC vesicles, when compound to lipid mol ratio is 0.1.
The test system of test [2] is Liposome. Description: The compound was evaluated for percent incorporation in DOPC vesicles, when compound to lipid mol ratio is 2.
The test system of test [3] is Liposome. Description: The compound was evaluated for percent incorporation in DOPC vesicles, when compound to lipid mol ratio is 3.5.

`CC1=C(CC(=O)O)c2cc(F)ccc2/C1=C\c1ccc([S+](C)[O-])cc1` (stereo not given): the Incorporation is 7% in the test with Liposome [1] and 5% in the test with Liposome [2].

`CSc1ccc(/C=C2/C(C)=C(CC(=O)O)c3cc(F)ccc32)cc1`: the Incorporation is 25% in the test with Liposome [3], 74% with Liposome [1] and 41% with Liposome [2].

These data come from ChEMBL document CHEMBL1121908, “Membrane effects of antiinflammatory agents. 1. Interaction of sulindac and its metabolites with phospholipid membrane, a magnetic resonance study” (J Med Chem, 1981).
